Experimental data reported in patent US20060183901A1, “Crystalline form of an indazole-carboxamide compound” (THERAVANCE, INC., priority 2005, published 2006).

Legend:
[1] = tested on: Caco-2 cell monolayer; experiment: Caco-2 permeation assay; format: in vitro ADME, human; conditions: 100 μM, 37° C., 60 min
Method: Assay 5: In Vitro Model of Oral Bioavailability: Caco-2 Permeation Assay
The Caco-2 permeation assay was performed to model the ability of test compounds to pass through the intestine and get into the blood stream after oral administration. The rate at which test compounds in solution permeate a cell monolayer designed to mimic the tight junction of human small intestinal monolayers was determined.
Caco-2 (colon, adenocarcinoma; human) cells were obtained from ATCC (American Type Culture Collection; Rockville, Md.). For the permeation study, cells were seeded at a density of 63,000 cells/cm^2 on pre-wetted transwells polycarbonate filters (Costar; Cambridge, Mass.). A cell monolayer was formed after 21 days in culture. Following cell culture in the transwell plate, the membrane containing the cell monolayer was detached from the transwell plate and inserted into the diffusion chamber (Costar; Cambridge, Mass.). The diffusion chamber was inserted into the heating block which was equipped with circulating external, thermostatically regulated 37° C. water for temperature control. […]
The permeation study was performed with test compound concentrations at 100 μM and with ^14C-mannitol to monitor the integrity of the monolayer. […] Samples were analyzed by HPLC or liquid scintillation counting for test compound and mannitol concentrations. The permeation coefficient (Kp) in cm/sec was calculated.

[2] = Pharmacokinetic study in the rat; conditions: in vivo
Method: Assay 6: Pharmacokinetic Study in the Rat
Aqueous solution formulations of test compounds were prepared in 0.1% lactic acid at a pH of between about 5 and about 6. Male Sprague-Dawley rats (CD strain, Charles River Laboratories, Wilmington, Mass.) were dosed with test compounds via intravenous administration (IV) at a dose of 2.5 mg/kg or by oral gavage (PO) at a dose of 5 mg/kg. The dosing volume was 1 mL/kg for IV and 2 mL/kg for PO administration. Serial blood samples were collected from animals pre-dose, and at 2 (IV only), 5, 15, and 30 min, and at 1, 2, 4, 8, and 24 hours post-dose. Concentrations of test compounds in blood plasma were determined by liquid chromatography-mass spectrometry analysis (LC-MS/MS) (MDS SCIEX, API 4000, Applied Biosystems, Foster City, Calif.) with a lower limit of quantitation of 1 ng/mL.
Standard pharmacokinetic parameters were assessed by non-compartmental analysis (Model 201 for IV and Model 200 for PO) using WinNonlin (Version 4.0.1, Pharsight, Mountain View, Calif.). The maximum in the curve of test compound concentration in blood plasma vs. time is denoted Cmax. The area under the concentration vs. time curve from the time of dosing to the last measurable concentration (AUC(0-t)) was calculated by the linear trapezoidal rule. Oral bioavailability (F(%)), i.e. the dose-normalized ratio of AUC(0-t) for PO administration to AUC(0-t) for IV administration, was calculated as: F(%)=AUCPO/AUCIV×DoseIV/DosePO×100%

[3] = target: human 5-HT3A receptor (Homo sapiens, UniProt P46098)
Method: Assay 2: Radioligand Binding Assay on 5-HT3A Human Receptors: Determination of Receptor Subtype Selectivity
Membrane Preparation 5-HT3A
Cells were grown in T-225 flasks or cell factories in 50% Dulbecco's Modified Eagles Medium (DMEM) (GIBCO-Invitrogen Corp., Carlsbad, Calif.: Cat #11965) and 50% Ham's F12 (GIBCO-Invitrogen Corp.: Cat #11765) supplemented with 10% heat inactivated fetal bovine serum (FBS) (Hyclone, Logan, Utah: Cat #SH30070.03) and (50 units) penicillin-(50 μg) streptomycin/ml (GIBCO-Invitrogen Corp.: Cat #15140) in a 5% CO2, humidified incubator at 37° C.
Cells were grown to roughly 70-80% confluency (<35 subculture passages). All steps of the membrane preparation were performed on ice. […]
Radioligand binding assays were performed in 96-well polypropylene assay plates in a total assay volume of 200 μL containing 1.5-2 μg membrane protein in 50 mM HEPES pH 7.4, containing 0.025% BSA assay buffer. […] Non-specific binding was determined in the presence of 10 μM unlabeled MDL72222. […] Filter plates were washed three times with filtration buffer (ice-cold 50 mM HEPES, pH7.4) to remove unbound radioactivity. Plates were dried, 35 μL Microscint-20 liquid scintillation fluid (Packard BioScience Co., Meriden, Conn.) was added to each well and plates were counted in a Packard Topcount liquid scintillation counter (Packard BioScience Co., Meriden, Conn.). […]

[4] = male Sprague-Dawley rats, PO 5 mg/kg, blood plasma

Sequence of human 5-HT3A receptor (P46098 24-478): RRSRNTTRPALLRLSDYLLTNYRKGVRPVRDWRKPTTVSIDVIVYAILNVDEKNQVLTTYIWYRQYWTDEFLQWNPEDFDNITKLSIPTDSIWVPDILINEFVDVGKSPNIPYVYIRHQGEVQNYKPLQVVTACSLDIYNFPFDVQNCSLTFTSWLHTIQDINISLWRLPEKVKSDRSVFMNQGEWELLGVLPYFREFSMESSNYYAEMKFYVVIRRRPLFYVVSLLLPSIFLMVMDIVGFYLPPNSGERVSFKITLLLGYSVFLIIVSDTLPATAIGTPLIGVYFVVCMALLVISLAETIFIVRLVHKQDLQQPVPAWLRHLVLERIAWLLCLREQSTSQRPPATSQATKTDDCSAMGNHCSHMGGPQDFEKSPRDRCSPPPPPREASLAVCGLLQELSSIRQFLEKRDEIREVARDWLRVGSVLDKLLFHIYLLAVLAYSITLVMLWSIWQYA

For `CC(=O)N1CCN(CCN2C3CCC2CC(NC(=O)c2nn(C(C)C)c4ccccc24)C3)CC1` [compound of formula I, 1-isopropyl-1H-indazole-3-carboxylic acid {(1S,3R,5R)-8-[2-(4-acetylpiperazin-1-yl)ethyl]-8-azabicyclo[3.2.1]oct-3-yl}amide], the “permeation coefficient Kp” value [1] was “greater than 20×10^−6 cm/sec”, the AUC(0-t) [2, 4] was 730 ng·h/mL and the Cmax [2, 4] was 250 ng/mL. The bioavailability ([2]; male, Sprague-Dawley, PO 5 mg/kg vs IV 2.5 mg/kg, read-out: oral bioavailability (F(%))) was about 100% and the “5-HT4/5-HT3 receptor subtype selectivity, ratio Ki(5-HT3A)/Ki(5-HT4(c))” value [3] was “greater than 500”.
